Calls of active or inactive are those of the source. The rule behind the calls is not given here.

Experimental findings from ChEMBL document CHEMBL3244200, “8-Carboxy-6-sulfamyldibenz[b,f][1,4]oxazepines and -thiazepines as potential high-ceiling diuretics” (1978) are described below.

For assay [1], the system named is Rattus norvegicus. The assay is described as follows: High-ceiling diuretic activity in Wistar rat assessed as drug to urea ratio to increase Na+ level in urine at 50 mg/kg, po measured for 5 hrs by flame photometric analysis (reference value: 0.47 +/- 0.07 no unit). The format is functional.
The subject of assay [2] is Rattus norvegicus. The assay is described as follows: High-ceiling diuretic activity in Wistar rat assessed as drug to urea ratio to increase K+ level in urine at 50 mg/kg, po measured for 5 hrs by flame photometric analysis (reference value: 0.57 +/- 0.08 no unit). The format is functional.
The next assay relates to Canis familiaris. The assay is described as follows: High-ceiling diuretic activity in Beagle dog at 20 mg/kg, po. It is filed as functional, organism-based. Conditions: Canis lupus familiaris, Urine. Also noted: dose 20 mg/kg.
For assay [3], the system named is Rattus norvegicus. The experiment in a line: High-ceiling diuretic activity in Wistar rat assessed as drug to urea ratio to cause diuresis at 50 mg/kg, po measured for 5 hrs (reference value: 0.44 +/- 0.05 no unit). The format is functional, Urine.

In the case of `NS(=O)(=O)c1cc(C(=O)O)cc2c1Sc1ccccc1C(=O)N2`, the values for the Ratio in the assay on Rattus norvegicus [1], in the assay on Rattus norvegicus [2] and in the assay with Rattus norvegicus [3] were 0.71, 0.62 and 0.56, respectively. For the same compound, the result in the assay on Canis familiaris was inactive.

In the case of `COC(=O)c1cc2c(c(S(N)(=O)=O)c1)Sc1ccccc1C(=O)N2`, the Ratio in the assay on Rattus norvegicus [1] was determined as 0.42; in the assay on Rattus norvegicus [2], 0.41; in the assay on Rattus norvegicus [3], 0.25.

Turning to `COC(=O)c1cc2c(c(S(N)(=O)=O)c1)Oc1ccccc1C(=O)N2`, the Ratio in the assay with Rattus norvegicus [1] came out at 1.24; in the assay with Rattus norvegicus [2], 0.63; in the assay with Rattus norvegicus [3] it was 0.79.

Turning to `NS(=O)(=O)c1cc(C(=O)O)cc2c1Oc1ccccc1CN2`, the Ratio with Rattus norvegicus [1] stood at 1; in the assay on Rattus norvegicus [2], 0.9; with Rattus norvegicus [3], 0.47.

With `NS(=O)(=O)c1cc(C(=O)O)cc2c1Sc1ccccc1CN2`, the Ratio came out at 0.13 with Rattus norvegicus [1], 0.05 with Rattus norvegicus [2] and 0.07 in the assay on Rattus norvegicus [3]. Further, the result in the assay with Canis familiaris was inactive.

As for `CCCCNc1cc(C(=O)O)cc(S(N)(=O)=O)c1Oc1ccccc1` [BUMETANIDE], the Ratio in the assay with Rattus norvegicus [1] came out at 4.66; in the assay with Rattus norvegicus [2] it was 0.97; in the assay on Rattus norvegicus [3], 2.6.
